Data as given in article PMC12439338, “Designer amphiphilic helical peptide-decorated nanomicelles enable simultaneous inflammation control and triple-destruction of bacteria for treating bacterial pneumonia and sepsis” (Theranostics, 2025).
Where a SMILES comes first, the peptide text is derived from it.

Columns and labels:
[1] = right after preparation and overnight storage
[2] = system: bacteria-induced sepsis mouse models; conditions: cited from earlier work
Source text: The gene expressions of TLR2 and TLR4 in these patients were also correlated with that of the inflammatory cytokine IL1B (Figure S1C-F). These analyses together with reported literatures indeed confirmed the TLR2 and TLR4 up-regulation as a strong pathogenic factor in sepsis patients. Moreover, studies have shown that TLR4 knockout mice ...

[3] = system: LPS / TLR4; set-up: method as in 3 sources, ref 25 = [25]; PMID 34183393; doi:10.1073/pnas.2101721118; 25 Schromm AB Paulowski L Kaconis Y Kopp F Koistinen M Donoghue A Cathelicidin and PMB neutralize endotoxins by multifactorial mechanisms including LPS interaction and targeting of host cell membranes ||| ref 18, 19 = [18]; PMID 17237433; doi:10.4049/jimmunol.178.3.1829; 18 Di Nardo A Braff MH Taylor KR Na C Granstein RD McInturff JE Cathelicidin antimicrobial peptides block dendritic cell TLR4 activation and allergic contact sensitization J Immunol 2007 178 1829 34 1 || [19]; PMID 32582207; doi:10.3389/fimmu.2020.01137; 19 Scheenstra MR van Harten RM Veldhuizen EJA Haagsman HP Coorens M Cathelicidins modulate TLR-activation and inflammation Front Immunol 2020 11 1137 32582207 10.3389/fimmu.2020.01137 PMC7296178 ||| ref 44 = [44]; PMID 31364070; doi:10.1007/978-3-030-16373-0_4; 44 Li Z Velkov T Polymyxins: mode of action Adv Exp Med Biol 2019 1145 37 54 31364070 10.1007/978-3-030-16373-0_4; conditions: cited from earlier work
Source text: Bioactive peptides are functional biopolymers that can be de novo designed or derived from nature with immunoregulatory and antimicrobial activities. For example, naturally existed antimicrobial peptides (AMPs) are key players in the host-defense mechanism against the invasion of various pathogens including bacteria, fungi, viruses and parasites, [17], through the disruption of microorganism membranes. This working mechanism makes AMPs more advantageous over traditional antibiotics due to less chance for the development of drug resistance. In addition to elimination of microbes, some AMPs ... || Polymyxin B (PMB), a cationic cyclic peptide, is one of the last-line antibiotics to treat drug-resistant bacterial infection in the clinic. […] To assess the potency of our newly designed R18, we made the head-to-head comparison between R18 and polymyxin B on their TLR4 and TLR2 inhibitory activities.

[4] = system: TLR4/MD-2 complex; set-up: method as in PMID 35238667; conditions: cited from earlier work
[5] = system: TLR2 signaling (Pam3CSK4-induced NF-κB/AP-1 activation) in THP-1 reporter cell-derived macrophages; experiment: NF-κB/AP-1 reporter assay, Pam3CSK4 (TLR2); assay type: cell-based, human; conditions: 2.5, 5 and 10 μM, Pam3CSK4 10 ng/mL, co-treatment, N = 3
Method: (§1) Cell culture. THP-1 cells were cultured in the RPMI 1640 complete medium supplemented with 10% FBS, 2 mM L-glutamine, and 1 mM sodium pyruvate, in a cell incubator containing 5% CO2 at 37°C. Zeocin (200 μg/mL or 100 μg/mL) was added to the complete medium as the selection pressure for THP-1-XBlue or THP-1-ISG reporter cells. Cells were seeded into a 96-well plate (1×10^5 cells/well) or a 24-well plate (5×10^5 cells/well), and differentiated into macrophages with PMA (50 ng/mL) for 24 h. […] The culture medium supernatants and cell lysates were collected for further analysis.
(§2) NF-κB/AP-1 and IRF reporter assay. THP-1-XBlue and THP-1-ISG reporter cells were used to assess the activation of NF-κB/AP-1 and IRF, respectively. After treatments, the culture medium (20 μL per well) was collected and mixed with the Quanti-Blue solution (180 μL) in a clean 96-well plate, which was incubated for 1-2 h at 37°C until the solution color turned into dark purple. The solution absorption at 655 nm was acquired on a microplate reader (TECAN, Mannedorf, Zurich, Switzerland).

[6] = system: Gram-positive bacterial infection; conditions: cited from earlier work
Source text: (§3) The fast-increasing cases of sepsis or pneumonia caused by multidrug-resistant Gram-negative bacteria in the clinics have become a global health emergency, [30]. Currently, the peptide-based polymyxin B is the last line of antibiotics to fight multidrug-resistant Gram-negative bacteria. […] Th ...

[7] = cited from earlier work
Source text: as §3

[8] = system: TLR4 signaling (LPS-induced NF-κB/AP-1 and IRF activation) in THP-1 reporter cell-derived macrophages; experiment: NF-κB/AP-1 and IRF reporter assay, LPS (TLR4); assay type: cell-based, human
Method: as §1, §2

CC(C)C[C@H](NC(=O)[C@H](CC(C)C)NC(=O)[C@H](CCCNC(=N)N)NC(=O)[C@H](Cc1c[nH]c2ccccc12)NC(=O)[C@H](CC(C)C)NC(=O)[C@H](CCCNC(=N)N)NC(=O)[C@H](CCCNC(=N)N)NC(=O)[C@H](Cc1c[nH]c2ccccc12)NC(=O)[C@H](CC(C)C)NC(=O)[C@H](CCCNC(=N)N)NC(=O)[C@H](CC(C)C)NC(=O)[C@H](Cc1c[nH]c2ccccc12)NC(=O)[C@H](CCCNC(=N)N)NC(=O)[C@H](CCCNC(=N)N)NC(=O)[C@H](CC(C)C)NC(=O)[C@H](Cc1c[nH]c2ccccc12)NC(=O)[C@@H](N)CCCNC(=N)N)C(=O)N[C@@H](CCCNC(=N)N)C(N)=O [R18] (H-RWLRRWLRLWRRLWRLLR-NH2)
stability and dispersibility in PBS [1]: tended to form milky colloidal suspensions and precipitate overnight

CCOC(=O)C1=CCCC[C@H]1S(=O)(=O)Nc1ccc(F)cc1Cl [TAK-242]
disease severity in sepsis mouse models [2]: successfully reduced the disease severity in bacteria-induced sepsis mouse models

LL-37: human host-defense peptide cathelicidin
modulation of TLR4-triggered responses via LPS binding [3]: capable of modulating TLR4-triggered inflammatory responses

papiliocin
binding to TLR4/MD-2 [4]: directly bind to the TLR4/MD-2 complex in order to block LPS-TLR4 interactions

polymyxin B
inhibition of Pam3CSK4-induced NF-κB/AP-1 activation [5]: had no effect on TLR2 inhibition | effectiveness against Gram-positive bacterial infection and inflammation [6]: not effective against Gram-positive bacterial infection and the associated inflammation | clinical toxicity [7]: has neurotoxicity and often causes some serious kidney problems | inhibition of LPS-induced NF-κB/AP-1 and IRF activation [8]: able to effectively inhibit LPS-induced activation | TLR4-mediated inflammation inhibition by antagonizing LPS [3]: capable of inhibiting TLR4-mediated inflammatory responses by antagonizing LPS | TLR4 antagonism by LPS neutralization [3]: TLR4 antagonist by neutralizing the bacterial product LPS
